Entries after “also recorded” stand apart in the source; their conditions may differ.
How the values were obtained:
[1] = test system: Citrobacter freundii; assay: Disk diffusion test on Citrobacter freundii; type: cell-based
Description: (§1) Applicants undertook two rounds of studies. […] When agar plating was required, both rounds of Applicants' studies were undertaken using similar disk diffusion methods on bacteria grown on agar substrates in Petri dishes. These methods conform to those prescribed by the Clinical & Laboratory Standards Institute (https://clsi.org). […]

[2] = test system: Acinetobacter baumannii; assay: Disk diffusion test on Acinetobacter baumannii; type: cell-based
Description: as §1

[3] = test system: Klebsiella pneumoniae; assay: Disk diffusion test on Klebsiella pneumoniae; type: cell-based
Description: (§2) Applicants undertook two rounds of studies. The results of the first round are illustrated in FIGS. 1A-9B and discussed in the related text. The results of the second round of studies are illustrated in FIGS. 10-23 and discussed in the related text. When agar plating was required, both rounds of Applicants' studies were undertaken using similar disk diffusion methods on bacteria grown on agar substrates in Petri dishes. These methods conform to those prescribed by the Clinical & Laboratory Standards Institute (https://clsi.org).
(§3) Disk Diffusion tests with beta-lactam antibiotics with and without the beta-lactamase inhibitor of FIG. 1A. Closely spaced disks disclose possible synergistic or inhibitory effects between the antibiotics and the compound of FIG. 1A (labeled in FIGS. 4A-9B as Compound C). The distances between disks show the effectiveness of the possible synergy. […] Each disk contains either the compound of FIG. 1A or an antibiotic (one of FIGS. 3A-3D), or the compound of […] and an antibiotic (one of FIGS. 3A-3D). When a disk with the compound of FIG. 1A is in proximity to a disk with an antibiotic both agents diffuse into the bacterial growth medium, allowing us to observe the area where both agents are present at the same time. These disk diffusion tests were evaluated with the following:
(§4) As noted above, Applicants' studies were undertaken using similar disk diffusion methods on bacteria grown on agar substrates in Petri dishes. These methods conform to those prescribed by the Clinical & Laboratory Standards Institute (https://clsi.org).

[4] = test system: complicated urinary tract infection, including acute pyelonephritis; assay: Intravenous cefepime plus 5-Boronothiophene-2-carboxylic acid in patients with complicated urinary tract infection; type: in vivo, adult patients; conditions: cefepime 2.0 g + 5-Boronothiophene-2-carboxylic acid 0.5 g, intravenously over two hours every 8 hours, 7 days
Procedure: According to the disclosed invention, requisite amounts of both cefepime and 5-Boronothiophene-2-carboxylic acid are dissolved. Particularly, 2.0 g of cefepime are dissolved in sterile normal saline (0.9% sodium chloride) solution and 0.5 g of 5-Boronothiophene-2-carboxylic acid are dissolved in DMSO. Dissolution may be accelerated by use of an alcohol such as ethyl alcohol. Thereafter, a 2.5 g dose of a combination of cefepime (2.0 g) and 5-Boronothiophene-2-carboxylic acid (0.5 g) together with sterile normal saline (0.9% sodium chloride) as a diluent is administered to randomly assigned adult patients challenged with complicated urinary tract infection, including acute pyelonephritis, over a two-hour period with the dose being administered intravenously every 8 hours. A 1.0 g dose of a placebo is administered over 30-minute periods, every 8 hours also intravenously. The administration may be carried out over a period of 7 days.

[5] = test system: Escherichia coli; assay: Disk diffusion test on Escherichia coli; type: cell-based
Description: as §1

[6] = test system: methicillin-resistant coagulase-negative Staphylococcus sps. (MRCoNS); assay: Disk diffusion test on MRCoNS; type: cell-based
Description: as §2, §3, §4

[7] = test system: Pseudomonas aeruginosa; assay: Disk diffusion test on Pseudomonas aeruginosa; type: cell-based; conditions: in combination with aztreonam
Description: as §1

[8] = test system: MSSA (methicillin-sensitive Staphylococcus aureus); assay: Disk diffusion test on Staphylococcus aureus (MSSA); type: cell-based
Description: as §1

[9] = in combination with ceftazidime
[10] = in combination with ceftriaxone

O=C(O)c1ccc(B(O)O)s1 [Compound C, 2-carboxythiophene-5-boronic acid]
effectiveness of the combination with antibiotic [1, 9]: enhanced effectiveness | effectiveness of the combination with antibiotic [1, 10]: enhanced effectiveness | effectiveness of the combination with antibiotic ([1]; in combination with meropenem): enhanced effectiveness | effectiveness of the combination with antibiotic [2, 9]: enhanced effectiveness | effectiveness of the combination with antibiotic ([2]; in combination with meropenem): enhanced effectiveness | enhancement of the action of ceftazidime ([3]; ceftazidime 30 μg + Compound C 15 μg): very strongly enhances; also recorded: strongly enhances | effectiveness of the combination with antibiotic ([3]; in combination with ceftazidime (second round)): enhanced effectiveness | effectiveness of the combination with antibiotic [3, 10]: enhanced effectiveness | effectiveness of the combination with antibiotic ([3]; in combination with meropenem (second round)): enhanced effectiveness | effect on the activity of meropenem ([3]; meropenem 10 μg + Compound C 15 μg): essentially no effect | effect on the activity of meropenem ([3]; meropenem 10 μg + Compound C 150 μg): only weakly enhances | antibacterial activity of the agent by itself ([3]; single agent disk, ceftazidime 30 μg, meropenem 10 μg, Compound C 15 μg): no activity on its own | microbiologic and clinical success [4]: both microbiologic and clinical success | effectiveness of the combination with antibiotic ([5]; in combination with amoxycillin): enhanced effectiveness | effectiveness of the combination with antibiotic [5, 9]: enhanced effectiveness | effectiveness of the combination with antibiotic [5, 10]: enhanced effectiveness | effectiveness of the combination with antibiotic ([5]; in combination with meropenem): enhanced effectiveness | effect on cefoxitin activity ([6]; cefoxitin 30 μg + Compound C 15 μg): does not enhance cefoxitin activity | effect on cefoxitin activity ([6]; cefoxitin 30 μg + Compound C 150 μg): inhibits cefoxitin antibiotic activity | effectiveness of the combination with antibiotic ([6]; in combination with ampicillin): enhanced effectiveness | effectiveness of the combination with antibiotic ([6]; in combination with penicillin G (second round)): enhanced effectiveness | activation of the antibiotic action of penicillin G ([6]; penicillin G 10 μg + Compound C 15 μg): strongly enables; also recorded: activates the antibiotic action of penicillin G | activation of the antibiotic action of penicillin G ([6]; penicillin G 10 μg + Compound C 150 μg): further activate penicillin G | antibacterial activity of the agent by itself ([6]; single agent disk, penicillin G 10 μg, cefoxitin 30 μg, Compound C 15 μg): no antibacterial activity | effectiveness of the combination with antibiotic [7]: enhanced effectiveness | effectiveness of the combination with antibiotic ([8]; in combination with ampicillin): enhanced effectiveness | effectiveness of the combination with antibiotic ([8]; in combination with penicillin G): enhanced effectiveness

From patent publication US20250332181A1, “ANTIBIOTIC METHODS AND COMPOSITIONS” (AI BIO DISCOVERY LLC, priority 2024, published 2025)
